We go through 20 compounds from patent US11332438B2, “Creatine prodrugs, compositions and methods of use thereof” (Ultragenyx Pharmaceutical Inc., priority 2017, dated 2022).

SMILES strings stand for the structures.

A short description of data set [1]: Plasma stability, human plasma. Conditions: for half-life: 37 °C, read-out: Plasma Stability Human t1/2. The format is in vitro ADME. Here is the method:
(§1) The stabilities of creatine prodrugs can be evaluated in one or more in vitro systems using a variety of preparations following methods known in the art. Experimental conditions useful for the in vitro studies are described in Table 1. Prodrug is added to each preparation in triplicate. […]
(§2) Protocol for plasma stability for early screen macrocycles (Method A):
(§3) Frozen plasma was thawed by placing at 37° C. quickly and centrifuged at 3,000 rpm for 8 minutes to remove clots. Then the supernatant was pipetted and pooled as the plasma to be used in the experiment. The plasma was placed on ice until used. The test compounds and reference compounds spiking solution was prepared as a 2.5 mM test compounds spiking solution A: Add 20 μL of 10 mM test compounds stock solution to 60 μL DMSO. 0.1 mM Spiking solution B was prepared: Add 40 μL of spiking solution A to 960 μL of […] Sodium phosphate buffer with 0.5% BSA. […] For 0-min, 400 μL of ACN containing IS was added to the wells of 0-min plate and then 90 μL of plasma was added. […] 50 μL of the supernatant was transferred from each well into a 96-well sample plate containing 120 μL of ultra pure water (Millipore, ZMQS50F01) and analyzed by LC/MS.
(§4) Protocol for plasma stability (Method B):
(§5) The frozen plasma was thawed in a 37° C. water bath and then, if needed, adjusted to pH=7.4 then preheated in a 37° C. incubator. The test article was dissolved in 10% DMSO/water and spiked into plasma pre-plated into 96 well plates at a final concentration of 1 μM. Discrete incubations were performed at 37° C. and included 5 time points: t=0, 2, 5, 15, and 30 min. Samples were then crashed with 4× volume, ice cold 20% water/80% acetonitrile and spun at 4000 g for 10 mins. The supernatant was dried down and reconstituted with water and analyzed by LC-MS/MS. The half life in minute was calculated.

The nature of data set [2]: Plasma stability, mouse plasma. The format is in vitro ADME. Conditions: for half-life: 37 °C, read-out: Plasma Stability Mouse t1/2. The method, then: as §1, §2, §3, §4, §5
The nature of data set [3]: Liver microsome stability, human. The format is in vitro ADME. Conditions: liver microsomes, read-out: Microsome Stability Human t1/2. The method, then:
as §1
(§6) Protocol for Microsomal Stability:
(§7) For reference compound, a 500 μM spiking solution was prepared: add 10 μL of 10 mM DMSO stock solution into 190 μL ACN. […] For test compound, a 5 mM spiking solution was prepared: add 10 μL of 10 mM DMSO stock solution into 10 μL ACN. […] NADPH stock solution (6 mM) was prepared by dissolving NADPH into buffer 0.1 M Potassium Phosphate buffer, 1.0 mM EDTA, pH 7.4. […] For 0-min, 135 μL of ACN containing IS was added to the wells of 0-min plate and then 15 μL of NADPH stock solution (6 mM) was added. 15 μL of NADPH stock solution (6 mM) was added to the samples designated as 0-, 5-, 10-, 20-, 30-min, 60-min; 15 μL of buffer 0.1 M Potassium Phosphate buffer, 1.0 mM EDTA, pH 7.4, was added to the samples designated as 60-min without NADPH. At 5-min, 10-min, 20-min, and 30-min, 60-min 135 μL of ACN containing IS was added to the wells of corresponding plates, respectively, to stop the reaction. […] 50 μL of the supernatant from each well was transferred into a 96-well sample plate containing 50 μL of ultra pure water (Millipore, ZMQS50FOI) and analyzed by LC/MS.
In general terms: Liver microsomes are a subcellular fraction often used to study metabolism.

A short description of data set [4]: Liver microsome stability, mouse. The format is in vitro ADME. Conditions: liver microsomes, read-out: Microsome Stability Mouse t1/2. Here is the method: as §1, §6, §7
Data set [5] in a line: Chemical stability in phosphate buffered saline (PBS). The settings on record: 50 μM prodrug. The format is physicochemical. Here is the method:
(§8) Chemical stability of creatine prodrugs in phosphate buffered saline (PBS), simulated intestinal fluid (SIF) without pancreatin, simulated gastric fluid (SGF) without pepsin were determined by LC-UV, LC-CAD, LC-UV-CAD or LC-MS/MS as appropriate. Creatine prodrugs of the present disclosure (50 μM) were incubated at 37° C. according to described protocols and prodrug levels were compared between t=0, t=15, t=60, and t=120 mins by peak area ratio to determine the percentage remained at t=120 mins (2 h).
(§9) Protocol for PBS, SIF and SGF stability for screening:
(§10) Prodrugs (50 μM) were incubated in PBS, FaSSIF (Biorelevant) or FaSSGF (Biorelevant) at 37° C.

Data set [6] can be described thus: Chemical stability in simulated gastric fluid (SGF) without pepsin. Conditions: 50 μM prodrug. The format is physicochemical. Here is the method: as §8, §9, §10

As to `[2H]C([2H])([2H])N(CCO)C(=N)NC(=O)CCCCCCCCCC` [Compound 9], the half-life is over 3 h in data set [1] (Table 2A) and 0.55 h in data set [2] (Table 2A). The half-life at 10 μM was under 0.0833 h in data set [3] (pH 7.4, Table 2A) and under 0.0833 h in data set [4] (pH 7.4, Table 2A). Also, the “Chemical Stability PBS % T0 at 2 hours at 37 °C.” value (shortened to “Chemical Stability PBS % T0”) in data set [5] (Table 2A) stood at 0%. In data set [6] (Table 2A), the “Chemical Stability SGF, no enzyme % T0 at 2 hours at 37 °C.” value (“Chemical Stability SGF, no enzyme % T0” for short) was 99%.
As for `[2H]C([2H])([2H])N(CC(=O)O)C(=N)NC(=O)c1cccnc1` [Compound 21], the half-life in data set [1] (Table 2A) and in data set [2] (Table 2A) was over 3 h in each case. In addition, the half-life at 10 μM is over 2.42 h in data set [3] (pH 7.4, Table 2A) and over 2.42 h in data set [4] (pH 7.4, Table 2A). Further, in data set [5] (Table 2A), the “Chemical Stability PBS % T0” value was determined as 105%. In data set [6] (Table 2A), the “Chemical Stability SGF, no enzyme % T0” value is reported as 74%.
`[2H]C([2H])([2H])N(CC(=O)[O-])C(=N)NC(=O)CCCC/C=C\CCCCCCCCCCC.[Na+]` [Compound 25]: the half-life in data set [1] (Table 2A) and in data set [2] (Table 2A) was over 3 h each time. In addition, the half-life at 10 μM in data set [3] (pH 7.4, Table 2A) was over 2.42 h; in data set [4] (pH 7.4, Table 2A), over 2.42 h. The “Chemical Stability PBS % T0” value in data set [5] (Table 2A) is listed as 89%. Further, the “Chemical Stability SGF, no enzyme % T0” value in data set [6] (Table 2A) was 72%.
For the compound `[2H]C([2H])([2H])N(CC(=O)[O-])C(=N)NC(=O)CCCCC/C=C\CCCCCCCCCC.[Na+]` [Compound 26], the half-life in data set [1] (Table 2A) and in data set [2] (Table 2A) was over 3 h in each case. The half-life at 10 μM in data set [3] (pH 7.4, Table 2A) was 1.13 h; in data set [4] (pH 7.4, Table 2A), over 2.42 h. Moreover, the “Chemical Stability PBS % T0” value in data set [5] (Table 2A) was determined as 45%. Moreover, in data set [6] (Table 2A), the “Chemical Stability SGF, no enzyme % T0” value is recorded as 95%.
Take `[2H]C([2H])([2H])N(CC(=O)[O-])C(=N)NC(=O)CCCCCCCCCC/C=C\CCCCC.[Na+]` [Compound 27]: the half-life in data set [1] (Table 2A) and in data set [2] (Table 2A) was over 3 h in each case. The half-life at 10 μM in data set [3] (pH 7.4, Table 2A) is 0.233 h; in data set [4] (pH 7.4, Table 2A) it was 0.167 h. The “Chemical Stability PBS % T0” value in data set [5] (Table 2A) was found to be 67%. Besides, the “Chemical Stability SGF, no enzyme % T0” value in data set [6] (Table 2A) is listed as 96%.
As for `[2H]C([2H])([2H])N(CC(=O)[O-])C(=N)NC(=O)CCCCCCCCCC.[Na+]` [Compound 32], the half-life in data set [1] (Table 2A) and in data set [2] (Table 2A) was over 3 h each time. The half-life at 10 μM in data set [3] (pH 7.4, Table 2A) was 1.83 h; in data set [4] (pH 7.4, Table 2A) it was over 2.42 h.
Regarding `[2H]C([2H])([2H])N(CC(=O)O)C(=NC(=O)OC(C)(C)C)NC(=O)CCCCCCCCCC` [Compound 34], the half-life in data set [1] (Table 2A) and in data set [2] (Table 2A) was over 3 h in each case. In addition, the half-life at 10 μM in data set [3] (pH 7.4, Table 2A) was over 3 h; in data set [4] (pH 7.4, Table 2A), 2.05 h.
With `[2H]C([2H])([2H])N(CC(=O)[O-])C(=N)NC(=O)CCCCCCC.[Li+]` [Compound 37], the half-life in data set [1] (Table 2A) and in data set [2] (Table 2A) was over 3 h in each case. In addition, the half-life at 10 μM in data set [3] (pH 7.4, Table 2A) was 1.9 h; in data set [4] (pH 7.4, Table 2A), over 2.42 h.
As for `Cl.[2H]C([2H])([2H])N(CC(=O)OCc1oc(=O)oc1C)C(=N)NC(=O)CCCCCCCCCC` [Compound 48], the “Chemical Stability PBS % T0” value in data set [5] (Table 2A) came out at 97%. Further, the “Chemical Stability SGF, no enzyme % T0” value in data set [6] (Table 2A) is on record as 98%.
Take `Cl.[2H]C([2H])([2H])N(CC(=O)OC(C)C(C)(C)C)C(=N)NC(=O)CCCCCC` (stereo not shown) [Compound 53]: the “Chemical Stability PBS % T0” value in data set [5] (Table 2B) came to 64%. The “Chemical Stability SGF, no enzyme % T0” value in data set [6] (Table 2B) is listed as 91%.
The matching figures for `Cl.[2H]C([2H])([2H])N(CC(=O)OC(C)(C)C(F)(F)F)C(=N)NC(=O)CCCCCC` [Compound 55]: 97% and 94%.
As to `[2H]C([2H])([2H])N(CC(=O)[O-])C(=N)NC(=O)CCCCCCCCCO.[Na+]` [Compound 58], the half-life in data set [1] (Table 2B) and in data set [2] (Table 2B) was over 3 h in each case. The half-life at 10 μM in data set [3] (pH 7.4, Table 2B) was over 1.5 h; in data set [4] (pH 7.4, Table 2B) it was over 1.5 h.
Regarding `Cl.[2H]C([2H])([2H])N(CC(=O)OC(C)(C)C(F)(F)F)C(=N)NC(=O)CCCCCCCCCC` [Compound 59], in data set [5] (Table 2B), the “Chemical Stability PBS % T0” value came out at 101%. Besides, the “Chemical Stability SGF, no enzyme % T0” value in data set [6] (Table 2B) is listed as 30%.
Regarding `O=CO.[2H]C([2H])([2H])N1CC(=O)OCCCCCCCC(=O)NC1=N` [Compound BB, 5-imino-4-trideuteriomethylguanidino-1-oxa-4,6-diazacyclotetradecane-2,7-dione Formate], in data set [1], the “Plasma Stability Human t1/2” value is 9 min. Also, the “Plasma Stability Mouse t1/2” value in data set [2] is under 2 min.
Consider `[2H]C([2H])([2H])N1CC(=O)OCCCCCCCCC(=O)NC1=N` [Compound DD, 5-imino-4-trideuteriomethyl-1-oxa-4,6-diazacyclopentadecane-2,7-dione], for which the half-life in data set [1] (Table 2C, macrocycles) was 0.138 h; in data set [2] (Table 2C, macrocycles) it was under 0.0333 h.
For `Cl.[2H]C([2H])([2H])N1CC(=O)OC(C)CCCCCCCCCC(=O)NC1=N` (stereo not shown) [Compound K, 5-imino-4-trideuteriomethylguanidino-17-dimethyl-1-oxa-4,6-diazacycloheptadecane-2,7-dione Dihydrochloride] the same measures were 0.217 h and 0.0333 h.
Turning to `Cl.[2H]C([2H])([2H])N1CC(=O)OC(CC)CCCCCCCCCC(=O)NC1=N` (stereo not shown) [Compound L, 17-ethyl-5-imino-4-trideuteriomethyl-1-oxa-4,6-diazacycloheptadecane-2,7-dione Hydrochloric Acid Salt], the half-life in data set [1] (Table 2C, macrocycles) amounted to 0.567 h; in data set [2] (Table 2C, macrocycles), 0.05 h. Further, the half-life at 10 μM in data set [3] (pH 7.4, Table 2C) amounted to 0.0267 h; in data set [4] (pH 7.4, Table 2C), 0.01 h.
For the compound `Cl.[2H]C([2H])([2H])N1CC(=O)O[C@@H](C)CCCCCCCCCC(=O)NC1=N` [Compound PP, (S)-5-imino-17-methyl-4-(methyl-d3)-1-oxa-4,6-diazacycloheptadecane-2,7-dione Hydrochloride], the half-life in data set [1] (Table 2C, macrocycles) stood at 0.133 h; in data set [2] (Table 2C, macrocycles), 0.0183 h.
For the compound `[2H]C([2H])([2H])N1CC(=O)OCCCCCCCCCCCC(=O)NC1=N` [Compound QQ, 5-imino-4-trideuteriomethyl-1-oxa-4,6-diazacyclooctadecane-2,7-dione], the half-life at 10 μM amounted to 0.15 h in data set [3] (pH 7.4, Table 2C) and 0.0667 h in data set [4] (pH 7.4, Table 2C). Also, the “Chemical Stability PBS % T0” value in data set [5] (Table 2C) is given as 85%. Besides, in data set [6] (Table 2C), the “Chemical Stability SGF, no enzyme % T0” value is 79%.
Consider `O=CO.[2H]C([2H])([2H])N1CC(=O)OCCCCCCCCCC(=O)NC1=N` [Compound SS, 5-imino-4-trideuteriomethyl-1-oxa-4,6-diazacyclohexadecane-2,7-dione Formic Acid Salt], for which the half-life in data set [1] (Table 2C, macrocycles) is over 1.5 h. In addition, in data set [5] (Table 2C), the “Chemical Stability PBS % T0” value worked out at 0%. In data set [6] (Table 2C), the “Chemical Stability SGF, no enzyme % T0” value is listed as 85%.
